In brackets after ≈: the same amount, converted by molar mass. Blank lines part the entries; values can stand above or below the compound they belong to.
Legend:
Experiment in all cases: ≥ marks a high value that may be exact or a test limit, other limits are often not marked, values filed in µg/mL are converted to µM
[1] = test system: Trichosporon beigelii KCTC 7707
[2] = test system: Candida parapsilosis ATCC 22019
[3] = test system: Malassezia furfur KCTC 7744
[4] = test system: Candida albicans ATCC 90028
[5] = test system: Bacillus anthracis Sterne 34F2
Escherichia coli K91BK = test system: Escherichia coli K91BK
[6] = test system: Bacillus subtilis var. niger ATCC 9372
[7] = test system: Cryptococcus neoformans ATCC 34881
[8] = test system: Candida albicans ATCC 10231
[9] = test system: Saccharomyces cerevisiae ATCC 44774
[10] = test system: Staphylococcus aureus ATCC 15752
[11] = test system: Escherichia coli ATCC 27325
[12] = test system: Micrococcus luteus ATCC 10240
[13] = test system: Pseudomonas aeruginosa ATCC 27853
[14] = test system: Enterococcus faecalis ATCC 29212
[15] = test system: Bacillus subtilis KCTC 3038
[16] = test system: Salmonella typhimurium KCTC 2370
[17] = test system: Escherichia coli IFO 3972
[18] = test system: Staphylococcus aureus FDA 209P
[19] = test system: Klebsiella pneumoniae DSM 681
[20] = test system: Staphylococcus aureus ATCC 25923
[21] = test system: Pseudomonas aeruginosa DSM 1128
[22] = test system: Escherichia coli DSM 1103
[23] = test system: Streptococcus pneumoniae DSM 11865
[24] = test system: Xanthomonas fragariae Xf349-9A
[25] = test system: Pseudomonas syringae pv. actinidiae Psa3700.1.1
[26] = test system: Pseudomonas syringae pv. syringae EPS 94
[27] = test system: Xanthomonas campestris pv. Vesicatoria 2133-2
[28] = test system: Erwinia amylovora PMV 6076
[29] = test system: Xanthomonas arboricola pv. pruni CFBP 5563
[30] = test system: Pseudomonas syringae pv. syringae DSM 10604
[31] = test system: Pseudomonas corrugata DSM 7228
[32] = test system: Pectobacterium carotovorum subsp. carotovorum DSM 30168
Cladosporium herbarum = test system: Cladosporium herbarum
[33] = test system: Pseudomonas syringae pv. tomato DC3000
Botrytis cinerea = test system: Botrytis cinerea
Alternaria alternata = test system: Alternaria alternata
[34] = test system: Xanthomonas vesicatoria DSM 50861
[35] = test system: Clavibacter michiganensis subsp. michiganensis DSM 46294

SMILES: CC[C@H](C)[C@H](NC(=O)[C@H](C)NC(=O)[C@H](CCCCN)NC(=O)[C@H](CCCN=C(N)N)NC(=O)[C@H](CS)NC(=O)[C@H](CCCN=C(N)N)NC(=O)[C@H](CCCCN)NC(=O)[C@@H](NC(=O)[C@H](CC(N)=O)NC(=O)[C@H](CCCN=C(N)N)NC(=O)[C@H](CCC(=O)O)NC(=O)[C@H](CS)NC(=O)[C@H](CO)NC(=O)[C@@H](NC(=O)[C@H](CCCCN)NC(=O)[C@H](Cc1cnc[nH]1)NC(=O)[C@H](CC(N)=O)NC(=O)CNC(=O)[C@H](CC(C)C)NC(=O)[C@H](CCCCN)NC(=O)[C@H](CCCCN)NC(=O)[C@H](CCSC)NC(=O)[C@@H](N)CCCN=C(N)N)C(C)C)[C@@H](C)O)C(=O)O [RMKKLGNHKVSCERNTKRCRKAI]
- MIC [1]: 20 µM (≈ 55.1 µg/mL)
- MIC [2]: 10 µM (≈ 27.6 µg/mL)
- MIC [3]: 14.1 µM (≈ 39 µg/mL)
- MIC [4]: 10 µM (≈ 27.6 µg/mL)

SMILES: CC(=O)N[C@@H](CCCN=C(N)N)C(=O)NCC(=O)N[C@@H](CCCN=C(N)N)C(=O)NCC(=O)N[C@@H](CCCCN)C(=O)N[C@@H](CCC(N)=O)C(=O)NCC(=O)NCC(=O)N[C@@H](CCCCN)C(=O)N[C@H](C(=O)N[C@@H](CCCN=C(N)N)C(=O)N[C@@H](C)C(=O)N[C@@H](CCCCN)C(=O)N[C@@H](C)C(=O)N[C@@H](CCCCN)C(=O)N[C@H](C(=O)N[C@@H](CCCN=C(N)N)C(=O)N[C@@H](CO)C(=O)N[C@@H](CO)C(N)=O)[C@@H](C)O)C(C)C [RGRGKQGGKVRAKAKTRSS]
- MIC [5]: ≥ 100 µM
- MIC (Escherichia coli K91BK): ≥ 100 µM
- MIC [6]: ≥ 100 µM

SMILES: NCCCC[C@H](NC(=O)[C@H](CCCN=C(N)N)NC(=O)[C@H](CCCN=C(N)N)NC(=O)[C@H](CCCN=C(N)N)NC(=O)[C@@H]1CCCN1)C(=O)O [PRRRK]
- MIC [17]: ≥ 500 µM
- MIC [18]: ≥ 500 µM

SMILES: CC[C@H](C)[C@H](NC(=O)[C@H](CCC(N)=O)NC(=O)[C@H](CCC(=O)O)NC(=O)[C@H](CCC(=O)O)NC(=O)[C@H](CCCCN)NC(=O)[C@@H]1CCCN1C(=O)[C@H](CC(C)C)NC(=O)[C@H](C)NC(=O)[C@H](CO)NC(=O)[C@H](CC(C)C)NC(=O)[C@@H](NC(=O)[C@H](C)N)C(C)C)C(=O)NCC(=O)N[C@@H](CCCCN)C(=O)N[C@@H](C)C(=O)N[C@@H](CO)C(=O)N[C@H](C(=O)N[C@@H](CCCN=C(N)N)C(=O)NCC(=O)N[C@@H](CCCN=C(N)N)C(=O)N[C@@H](CCCCN)C(=O)N[C@@H](C)C(=O)N[C@@H](C)C(=O)N[C@@H](CCCN=C(N)N)C(=O)N[C@@H](CCCN=C(N)N)C(=O)N[C@@H](CCCCN)C(=O)N[C@@H](CCCCN)C(=O)O)[C@@H](C)O [AVLSALPKEEQIGKASTRGRKAARRKK]
- MIC [19]: ≥ 102 µM
- MIC [20]: > 102 µM
- MIC [21]: ≥ 102 µM
- MIC [22]: ≥ 102 µM
- MIC [23]: ≥ 102 µM

Other lines, results leading:

- MIC [7]: ≥ 36.6 µM
- MIC [8]: > 36.6 µM
- MIC [9]: ≥ 36.6 µM
- MIC [10]: ≥ 36.6 µM
- MIC [11]: ≥ 36.6 µM
- MIC [12]: ≥ 36.6 µM
- MIC [13]: > 36.6 µM
- MIC [14]: > 36.6 µM
- MIC [15]: ≥ 36.6 µM
- MIC [16]: ≥ 36.6 µM
SMILES: CC(C)[C@H](NC(=O)CNC(=O)[C@H](CCC(N)=O)NC(=O)[C@@H](NC(=O)[C@@H](NC(=O)[C@@H]1CCCN1C(=O)[C@H](CCCN=C(N)N)NC(=O)[C@@H](NC(=O)[C@@H](NC(=O)[C@@H](N)CCCN=C(N)N)C(C)C)C(C)C)C(C)C)C(C)C)C(=O)N[C@@H](CCCCN)C(=O)N[C@@H](CCC(=O)O)C(=O)N[C@@H](CCCCN)C(=O)N[C@H](C(=O)N[C@@H](CCCN=C(N)N)C(=O)O)C(C)C [RVVRPVVQGVKEKVR]

- MIC [24]: ≥ 50 µM
- MIC [25]: ≥ 50 µM
- MIC [26]: ≥ 50 µM
- MIC [27]: ≥ 50 µM
- MIC [28]: ≥ 50 µM
- MIC [29]: ≥ 50 µM
SMILES: CC[C@H](C)[C@H](NC(=O)[C@H](CCC(=O)O)NC(=O)[C@H](CC(N)=O)NC(=O)[C@H](CC(C)C)NC(=O)[C@H](C)NC(=O)[C@H](CCCCN)NC(=O)[C@@H](N)CCC(N)=O)C(=O)N[C@@H](CC(N)=O)C(=O)N[C@@H](CCC(N)=O)C(=O)N[C@@H](Cc1ccccc1)C(N)=O [QKALNEINQF]

- MIC [30]: 7.34 µM (≈ 9.99 µg/mL)
- MIC [31]: 29.4 µM (≈ 40 µg/mL)
- MIC [32]: 29.4 µM (≈ 40 µg/mL)
- MIC (Cladosporium herbarum): 14.7 µM (≈ 20 µg/mL)
- MIC [33]: 1.84 µM (≈ 2.5 µg/mL)
- MIC (Botrytis cinerea): ≥ 73.4 µM
- MIC (Alternaria alternata): ≥ 73.4 µM
- MIC [34]: 14.7 µM (≈ 20 µg/mL)
- MIC [35]: 29.4 µM (≈ 40 µg/mL)
SMILES: CC(C)C[C@H](NC(=O)[C@H](C)NC(=O)[C@H](CCCCN)NC(=O)[C@@H](N)CC(C)C)C(=O)N[C@@H](CCCN=C(N)N)C(=O)N[C@@H](CCCCN)C(=O)N[C@@H](C)C(=O)N[C@@H](CC(C)C)C(=O)N[C@@H](CCCCN)C(=O)N[C@@H](Cc1cnc[nH]1)C(=O)N[C@@H](CC(C)C)C(=O)N[C@@H](C)C(N)=O [LKALRKALKHLA]

Source: DBAASP
